Experimental data published in patent US10316035B2, “Triazolopyridine inhibitors of myeloperoxidase” (BRISTOL-MYERS SQUIBB COMPANY, priority 2015, dated 2019).
pIC50: −log10 of the molar value.

Molecular target: T1, myeloperoxidase (MPO) (Homo sapiens, UniProt P05164)
T1 sequence (P05164 49-745): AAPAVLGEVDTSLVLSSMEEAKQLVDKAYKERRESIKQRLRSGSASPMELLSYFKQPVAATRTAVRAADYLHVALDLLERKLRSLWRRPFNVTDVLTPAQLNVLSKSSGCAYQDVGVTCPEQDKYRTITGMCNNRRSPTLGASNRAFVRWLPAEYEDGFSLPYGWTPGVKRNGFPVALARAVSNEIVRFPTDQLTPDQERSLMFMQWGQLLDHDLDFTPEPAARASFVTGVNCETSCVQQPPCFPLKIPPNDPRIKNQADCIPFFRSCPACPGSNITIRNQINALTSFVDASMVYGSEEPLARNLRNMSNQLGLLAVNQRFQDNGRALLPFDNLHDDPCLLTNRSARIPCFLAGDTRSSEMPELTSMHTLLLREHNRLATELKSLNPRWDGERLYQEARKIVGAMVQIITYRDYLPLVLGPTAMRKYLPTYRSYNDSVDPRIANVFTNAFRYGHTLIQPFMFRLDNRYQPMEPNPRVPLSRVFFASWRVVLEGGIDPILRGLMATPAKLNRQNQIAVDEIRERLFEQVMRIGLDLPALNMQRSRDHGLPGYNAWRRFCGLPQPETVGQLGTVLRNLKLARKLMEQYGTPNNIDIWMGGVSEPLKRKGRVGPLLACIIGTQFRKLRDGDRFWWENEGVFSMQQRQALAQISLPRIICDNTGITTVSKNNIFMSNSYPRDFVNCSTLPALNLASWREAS
Test: MPO peroxidation assay (Amplex Red assay)
Type: biochemical
Details: MPO peroxidation, potency range class; read-out: Amplex Red IC50
Method in brief: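 MPO (200 pM) with 40 nM H2O2 was preincubated 10 min at room temperature with inhibitor in 100 mM KPi pH 7.4. A mix of Amplex Red (200 μM) and H2O2 (10 mM) was then added and resorufin fluorescence read kinetically for 15 min. Slopes over 180–540 s gave % inhibition and IC50 via a four-parameter Hill fit.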

pIC50	Compound
7.00 to 9.00	COc1ccc(-c2ccc(COc3cc(N)nc4[nH]nnc34)c(OC(F)(F)F)c2)cn1 [Example 290, 7-((4-(6-methoxypyridin-3-yl)-2-(trifluoromethoxy)benzyl)oxy)-3H-[1,2,3] triazolo[4,5-b]pyridin-5-amine]
7.00 to 9.00	COc1ccc(-c2ccc(COc3cc(N)nc4[nH]nnc34)c(C#N)c2)cn1 [Example 310, 2-(((5-amino-3H-[1,2,3]triazolo[4,5-b]pyridin-7-yl)oxy)methyl)-5-(6-methoxypyridin-3-yl)benzonitrile]
7.00 to 9.00	N#Cc1cc(-c2ccc(N)nc2)ccc1COc1cc(N)nc2[nH]nnc12 [Example 311, 2-(((5-amino-3H-[1,2,3]triazolo[4,5-b]pyridin-7-yl)oxy)methyl)-5-(6-aminopyridin-3-yl)benzonitrile]
7.00 to 9.00	N#Cc1cc(-c2ccc(O)nc2)ccc1COc1cc(N)nc2[nH]nnc12 [Example 312, 2-(((5-amino-3H-[1,2,3]triazolo[4,5-b]pyridin-7-yl)oxy)methyl)-5-(6-hydroxypyridin-3-yl)benzonitrile]
7.00 to 9.00	N#Cc1cc(-c2ccc(CO)nc2)ccc1COc1cc(N)nc2[nH]nnc12 [Example 313, 2-(((5-amino-3H-[1,2,3]triazolo[4,5-b]pyridin-7-yl)oxy)methyl)-5-(6-(hydroxymethyl)pyridin-3-yl)benzonitrile]
7.00 to 9.00	COc1ncc(-c2ccc(COc3cc(N)nc4[nH]nnc34)c(C#N)c2)cn1 [Example 314, 2-(((5-amino-3H-[1,2,3]triazolo[4,5-b]pyridin-7-yl)oxy)methyl)-5-(2-methoxypyrimidin-5-yl)benzonitrile]
7.00 to 9.00	N#Cc1cc(-c2ccc(C(F)(F)F)nc2)ccc1COc1cc(N)nc2[nH]nnc12 [Example 315, 2-(((5-amino-3H-[1,2,3]triazolo[4,5-b]pyridin-7-yl)oxy)methyl)-5-(6-(trifluoromethyl)pyridin-3-yl)benzonitrile]
7.00 to 9.00	N#Cc1cc(-c2ccc(C3CC3)nc2)ccc1COc1cc(N)nc2[nH]nnc12 [Example 316, 2-(((5-amino-3H-[1,2,3]triazolo[4,5-b]pyridin-7-yl)oxy)methyl)-5-(6-cyclopropylpyridin-3-yl)benzonitrile]
7.00 to 9.00	CN(C)c1ncc(-c2ccc(COc3cc(N)nc4[nH]nnc34)c(C#N)c2)cn1 [Example 317, 2-(((5-amino-3H-[1,2,3]triazolo[4,5-b]pyridin-7-yl)oxy)methyl)-5-(2-(dimethylamino)pyrimidin-5-yl)benzonitrile]
7.00 to 9.00	CN1CCN(c2ccc(-c3ccc(COc4cc(N)nc5[nH]nnc45)c(C#N)c3)cn2)CC1 [Example 319, 2-(((5-amino-3H-[1,2,3]triazolo[4,5-b]pyridin-7-yl)oxy)methyl)-5-(6-(4-methylpiperazin-1-yl)pyridin-3-yl)benzonitrile]
6.00 to 7.00	N#Cc1cc(-c2ccc(N3CCCCC3)nc2)ccc1COc1cc(N)nc2[nH]nnc12 [Example 320, 2-(((5-amino-3H-[1,2,3]triazolo[4,5-b]pyridin-7-yl)oxy)methyl)-5-(6-(piperidin-1-yl)pyridin-3-yl)benzonitrile]

Further lines, the compound ahead of its results:

Compound	pIC50
Nc1ccc(-c2ccc(COc3cc(N)nc4[nH]nnc34)c(OC(F)(F)F)c2)cn1 [Example 291, 7-((4-(6-aminopyridin-3-yl)-2-(trifluoromethoxy)benzyl)oxy)-3H-[1,2,3]triazolo[4,5-b] pyridin-5-amine]	7.00 to 9.00
N#Cc1ccc(-c2ccc(COc3cc(N)nc4[nH]nnc34)c(OC(F)(F)F)c2)cn1 [Example 292, 5-(4-(((5-amino-3H-[1,2,3]triazolo[4,5-b]pyridin-7-yl)oxy)methyl)-3-(trifluoromethoxy)phenyl)picolinonitrile]	7.00 to 9.00
CC(C)Oc1ccc(-c2ccc(COc3cc(N)nc4[nH]nnc34)c(OC(F)(F)F)c2)cn1 [Example 293, 7-((4-(6-isopropoxypyridin-3-yl)-2-(trifluoromethoxy)benzyl)oxy)-3H-[1,2,3] triazolo[4,5-b]pyridin-5-amine]	6.00 to 7.00
CS(=O)(=O)c1cncc(-c2ccc(COc3cc(N)nc4[nH]nnc34)c(OC(F)(F)F)c2)c1 [Example 294, 7-((4-(5-(methylsulfonyl)pyridin-3-yl)-2-(trifluoromethoxy)benzyl)oxy)-3H-[1,2,3] triazolo[4,5-b]pyridin-5-amine]	6.00 to 7.00
CS(=O)(=O)N1CCN(c2ccc(-c3ccc(COc4cc(N)nc5[nH]nnc45)c(OC(F)(F)F)c3)cn2)CC1 [Example 295, 7-((4-(6-(4-(methylsulfonyl)piperazin-1-yl)pyridin-3-yl)-2-(trifluoromethoxy)benzyl)oxy)-3H-[1,2,3] triazolo[4,5-b]pyridin-5-amine]	6.00 to 7.00
Nc1cc(OCc2ccc(-c3ccc(CO)nc3)cc2OC(F)(F)F)c2nn[nH]c2n1 [Example 296, (5-(4-(((5-amino-3H-[1,2,3]triazolo[4,5-b]pyridin-7-yl)oxy)methyl)-3-(trifluoromethoxy)phenyl)pyridin-2-yl)methanol]	7.00 to 9.00
Nc1cc(OCc2ccc(-c3ccc(N4CCNCC4)nc3)cc2OC(F)(F)F)c2nn[nH]c2n1 [Example 297, 7-((4-(6-(piperazin-1-yl)pyridin-3-yl)-2-(trifluoromethoxy)benzyl)oxy)-3H-[1,2,3] triazolo[4,5-b]pyridin-5-amine]	7.00 to 9.00
CN1CCN(c2cc(-c3ccc(COc4cc(N)nc5[nH]nnc45)c(OC(F)(F)F)c3)ccn2)CC1 [Example 299, 7-((4-(2-(4-methylpiperazin-1-yl)pyridin-4-yl)-2-(trifluoromethoxy)benzyl)oxy)-3H-[1,2,3] triazolo[4,5-b]pyridin-5-amine]	7.00 to 9.00
CN1CCN(c2ccc(-c3ccc(COc4cc(N)nc5[nH]nnc45)c(OC(F)(F)F)c3)cn2)CC1 [Example 300, 7-((4-(6-(4-methylpiperazin-1-yl)pyridin-3-yl)-2-(trifluoromethoxy)benzyl)oxy)-3H-[1,2,3] triazolo[4,5-b]pyridin-5-amine]	7.00 to 9.00
Nc1cc(OCc2ccc(-c3cccc(S(N)(=O)=O)c3)cc2OC(F)(F)F)c2nn[nH]c2n1 [Example 301, 4′-(((5-amino-3H-[1,2,3]triazolo[4,5-b]pyridin-7-yl)oxy)methyl)-3′-(trifluoromethoxy)-[1,1′-biphenyl]-3-sulfonamide]	7.00 to 9.00
Nc1cc(OCc2ccc(-c3ccc(Cl)nc3)cc2OC(F)(F)F)c2nn[nH]c2n1 [Example 302, 7-((4-(6-chloropyridin-3-yl)-2-(trifluoromethoxy)benzyl)oxy)-3H-[1,2,3] triazolo[4,5-b]pyridin-5-amine]	7.00 to 9.00
Nc1cc(OCc2ccc(-c3ccc(N4CCOCC4)nc3)cc2OC(F)(F)F)c2nn[nH]c2n1 [Example 303, 7-((4-(6-morpholinopyridin-3-yl)-2-(trifluoromethoxy)benzyl)oxy)-3H-[1,2,3] triazolo[4,5-b]pyridin-5-amine]	7.00 to 9.00
Nc1cc(OCc2ccc(-c3ccnc(O)c3)cc2OC(F)(F)F)c2nn[nH]c2n1 [Example 304, 4-(4-(((5-amino-3H-[1,2,3]triazolo[4,5-b]pyridin-7-yl)oxy)methyl)-3-(trifluoromethoxy)phenyl)pyridin-2-ol]	7.00 to 9.00
Nc1cc(OCc2ccc(-c3ccc(O)nc3)cc2OC(F)(F)F)c2nn[nH]c2n1 [Example 307, 5-(4-(((5-amino-3H-[1,2,3]triazolo[4,5-b]pyridin-7-yl)oxy)methyl)-3-(trifluoromethoxy)phenyl)pyridin-2-ol]	7.00 to 9.00
Nc1cc(OCc2ccc(-c3cncc(F)c3)cc2OC(F)(F)F)c2nn[nH]c2n1 [Example 308, 7-((4-(5-fluoropyridin-3-yl)-2-(trifluoromethoxy)benzyl)oxy)-3H-[1,2,3] triazolo[4,5-b]pyridin-5-amine]	7.00 to 9.00
COc1cc(-c2ccc(COc3cc(N)nc4[nH]nnc34)c(OC(F)(F)F)c2)c(F)cn1 [Example 309, 7-((4-(5-fluoro-2-methoxypyridin-4-yl)-2-(trifluoromethoxy)benzyl)oxy)-3H-[1,2,3] triazolo[4,5-b]pyridin-5-amine]	7.00 to 9.00
CC(=O)N1CCN(c2ccc(-c3ccc(COc4cc(N)nc5[nH]nnc45)c(C#N)c3)cn2)CC1 [Example 318, 5-(6-(4-acetylpiperazin-1-yl)pyridin-3-yl)-2-(((5-amino-3H-[1,2,3]triazolo[4,5-b]pyridin-7-yl)oxy)methyl) benzonitrile]	7.00 to 9.00
CN1CCN(c2ncc(-c3ccc(COc4cc(N)nc5[nH]nnc45)c(C#N)c3)cn2)CC1 [Example 321, 2-(((5-amino-3H-[1,2,3]triazolo[4,5-b]pyridin-7-yl)oxy)methyl)-5-(2-(4-methylpiperazin-1-yl)pyrimidin-5-yl)benzonitrile]	7.00 to 9.00
CS(=O)(=O)c1cncc(-c2ccc(COc3cc(N)nc4[nH]nnc34)c(C#N)c2)c1 [Example 322, 2-(((5-amino-3H-[1,2,3]triazolo[4,5-b]pyridin-7-yl)oxy)methyl)-5-(5-(methylsulfonyl)pyridin-3-yl)benzonitrile]	7.00 to 9.00
